Test results: US8772253B2, “Aureolic acid derivatives, the method for preparation thereof and the uses” (Entrechem, S.L., priority 2009, dated 2014)
Read-outs that look alike come from different tables or passages of the source.

Legend:
Format in all cases: cell-based
[1] = system: H116 (colon adenocarcinoma); experiment: MTT cell proliferation (cytotoxicity) assay, H116; settings: read-out: IC50 or concentration required to achieve 50% growth inhibition compared to untreated cells, H116 (colon)
Experimental: (§1) MTM and CRM derivatives were assayed against a collection of tumor cell lines. Tumor cell lines were obtained from The American Type and Culture Collection (ATCC), and the lines were the following; A549 (human lung carcinoma); H116 (colon adenocarcinoma); PSN1 (pancreatic adenocarcinoma) and T98G (human glyoblastoma). Cells were cultured in medium RPM1 containing 2 mM glutamine, 50 IU/ml penicillin and 50 μg/ml streptomycin. Culture medium for cell lines A549 and H116 was supplemeted with 5% FBS and culture medium for cell lines PSN1 and T98G was supplemented with 10% FBS.
(§2) The evaluation of compound cytotoxicity was carried out by determining cell viability using an assay based on metabolic reduction of 3-(4,5-dimethyl-2-thiazolyl)-2,5-diphenyltetrazolium bromide (MTT; Sigma Chemical Co. St. Louis, Mo.). This reduction reaction is carried out by mitochondrion succinate dehydrogenase of viable cells and produce formazan, a chromogenic compound that can be quantified by spectrophotometry.
(§3) The assay was carried out following the procedure described by Mosmann (J. Immunol. Methods 1983, 65, 55). Tumor cells were incubated in 96 well microtitre plates containing 200 μl of complete medium (with 4×10^3 cells/well for A549 and 6×10^3 cells/well for H116, PSN1 and T98G). Serial dilutions in DMSO of the test compounds (10 μg/ml, 5 μg/ml, 1 μg/ml, 0.5 μg/ml, 0.1 μg/ml, 0.05 μg/ml, 0.01 μg/ml, y 0.005 μg/ml) were added and after 2 days incubation (at 37° C., 5% CO2 and high relative humidity), 50 μl of MTT (1 mg/ml in PBS) was added to each well. The plates were incubated at 37° C. for 2 hours and the reduction product (formazan) was resuspended in 100 μl of DMSO and quantified at 490 nm with a spectrophotometer.

[2] = system: T98G (human glyoblastoma); experiment: MTT cell proliferation (cytotoxicity) assay, T98G; settings: read-out: IC50 or concentration required to achieve 50% growth inhibition compared to untreated cells, T98G (glyoblastoma)
Experimental: as §1, §2, §3

[3] = system: PSN1 (pancreatic adenocarcinoma); experiment: MTT cell proliferation (cytotoxicity) assay, PSN1; settings: read-out: IC50 or concentration required to achieve 50% growth inhibition compared to untreated cells, PSN1 (pancreatic adenocarcinoma)
Experimental: as §1, §2, §3

[4] = system: A549 (human lung carcinoma); experiment: MTT cell proliferation (cytotoxicity) assay, A549; settings: read-out: IC50 or concentration required to achieve 50% growth inhibition compared to untreated cells, A549 (lung)
Experimental: as §1, §2, §3

[5] = H116 cells, MTT, 2 days incubation, triplicate
[6] = T98G cells, MTT, 2 days incubation, triplicate
[7] = PSN1 cells, MTT, 2 days incubation, triplicate, read-out: IC50 or concentration required to achieve 50% growth inhibition compared to untreated cells, PSN1 (prostate)
[8] = A549 cells, MTT, 2 days incubation, triplicate
[9] = 48 h, H116 cells, MTT, 2 days incubation, triplicate
[10] = Homo sapiens, 48 h, T98G cells, MTT, 2 days incubation, triplicate
[11] = Homo sapiens, 48 h, PSN1 cells, MTT, 2 days incubation, triplicate, read-out: IC50 or concentration required to achieve 50% growth inhibition compared to untreated cells, PSN1 (prostate)
[12] = Homo sapiens, 48 h, A549 cells, MTT, 2 days incubation, triplicate

3D-demycarosyl-3D-β-D-digitoxosyl-MTM [reference compound]
IC50 [1, 5]: 46.6 nM | IC50 [2, 6]: 69 nM | IC50 [3, 7]: 46.6 nM | IC50 [4, 8]: 46.6 nM

3D-demycarosyl-MTM-SK [reference compound]
IC50 [1, 5]: 500 nM | IC50 [2, 6]: > 1000 nM | IC50 [3, 7]: 1000 nM | IC50 [4, 8]: 1000 nM

CO[C@H](C(=O)C(C)=O)[C@@H]1Cc2cc3cc(O[C@H]4C[C@@H](O[C@H]5C[C@@H](O)[C@H](O)C(C)O5)[C@H](O)C(C)O4)c(C)c(O)c3c(O)c2C(=O)[C@H]1O[C@H]1C[C@@H](O[C@H]2C[C@@H](O[C@H]3C[C@@H](O)[C@H](O)C(C)O3)[C@@H](O)C(C)O2)[C@H](O)C(C)O1 (some centres unmarked) [(IX)]
IC50 ([1]; H116, 48 h): 5 nM | IC50 ([2]; Homo sapiens, T98G, 48 h): 10 nM | IC50 ([3]; Homo sapiens, PSN1, 48 h): 5 nM | IC50 ([4]; Homo sapiens, A549, 48 h): 5 nM

C/C=C/C(=O)O[C@@H]1C[C@H](O[C@@H]2C[C@H](Oc3cc4cc5c(c(O)c4c(O)c3C)C(=O)[C@@H](O[C@H]3C[C@@H](O[C@H]4C[C@@H](O[C@H]6C[C@](C)(O)[C@H](O)C(C)O6)[C@@H](O)C(C)O4)[C@H](O)C(C)O3)[C@H]([C@H](OC)C(=O)[C@@H](O)[C@@H](C)O)C5)OC(C)[C@H]2O)OC(C)[C@H]1O (some centres unmarked) [(LI)]
IC50 [1, 9]: 43 nM | IC50 [2, 10]: 87 nM | IC50 [3, 11]: 43 nM | IC50 [4, 12]: 43 nM

CO[C@H](C(=O)[C@@H](O)[C@@H](C)OC(=O)CCC(=O)O)[C@@H]1Cc2cc3cc(O[C@H]4C[C@@H](O[C@H]5C[C@@H](O)[C@H](O)C(C)O5)[C@H](O)C(C)O4)c(C)c(O)c3c(O)c2C(=O)[C@H]1O[C@H]1C[C@@H](O[C@H]2C[C@@H](O[C@H]3C[C@](C)(O)[C@H](O)C(C)O3)[C@@H](O)C(C)O2)[C@H](O)C(C)O1 (some centres unmarked) [(LII)]
IC50 [1, 9]: 420 nM | IC50 [2, 10]: 844 nM | IC50 [3, 11]: 420 nM | IC50 [4, 12]: 420 nM

CO[C@H](C(=O)[C@@H](O)[C@@H](C)O)[C@@H]1Cc2cc3cc(O[C@H]4C[C@@H](O[C@H]5C[C@@H](O)[C@H](OC(=O)CCC(=O)O)C(C)O5)[C@H](O)C(C)O4)c(C)c(O)c3c(O)c2C(=O)[C@H]1O[C@H]1C[C@@H](O[C@H]2C[C@@H](O[C@H]3C[C@](C)(O)[C@H](O)C(C)O3)[C@@H](O)C(C)O2)[C@H](O)C(C)O1 (some centres unmarked) [(LIII)]
IC50 [1, 9]: 844 nM | IC50 [2, 10]: 844 nM | IC50 [3, 11]: 633 nM | IC50 [4, 12]: 4210 nM

CO[C@H](C(=O)[C@@H](O)[C@@H](C)O)[C@@H]1Cc2cc3cc(O[C@H]4C[C@@H](O[C@H]5C[C@@H](OC(=O)CCC(=O)O)[C@H](O)C(C)O5)[C@H](O)C(C)O4)c(C)c(O)c3c(O)c2C(=O)[C@H]1O[C@H]1C[C@@H](O[C@H]2C[C@@H](O[C@H]3C[C@](C)(O)[C@H](O)C(C)O3)[C@@H](O)C(C)O2)[C@H](O)C(C)O1 (some centres unmarked) [(LV)]
IC50 [1, 9]: 4210 nM | IC50 [2, 10]: 4210 nM | IC50 [3, 11]: 422 nM | IC50 [4, 12]: 4210 nM

CO[C@@H]([C@@H]1Cc2cc3cc(O[C@H]4C[C@@H](O[C@H]5C[C@@H](OC(C)=O)[C@H](O)C(C)O5)[C@H](O)C(C)O4)c(C)c(O)c3c(O)c2C(=O)[C@H]1O[C@H]1C[C@@H](O[C@H]2C[C@@H](O[C@H]3C[C@](C)(O)[C@H](O)C(C)O3)[C@@H](O)C(C)O2)[C@H](O)C(C)O1)[C@@H](O)C(C)=O (some centres unmarked) [(LXI)]
IC50 [1, 9]: 9 nM | IC50 [2, 10]: 45 nM | IC50 [3, 11]: 6.5 nM | IC50 [4, 12]: 45 nM

CO[C@@H]([C@@H]1Cc2cc3cc(O[C@H]4C[C@@H](O[C@H]5C[C@@H](O)[C@H](OC(C)=O)C(C)O5)[C@H](O)C(C)O4)c(C)c(O)c3c(O)c2C(=O)[C@H]1O[C@H]1C[C@@H](O[C@H]2C[C@@H](O[C@H]3C[C@](C)(O)[C@H](O)C(C)O3)[C@@H](O)C(C)O2)[C@H](O)C(C)O1)[C@@H](O)C(C)=O (some centres unmarked) [(LXIX)]
IC50 [1, 9]: 9 nM | IC50 [2, 10]: 4 nM | IC50 [3, 11]: 45 nM | IC50 [4, 12]: 9 nM

CO[C@@H]([C@@H]1Cc2cc3cc(O[C@H]4C[C@@H](O[C@H]5C[C@@H](O)[C@H](O)C(C)O5)[C@H](O)C(C)O4)c(C)c(O)c3c(O)c2C(=O)[C@H]1O[C@H]1C[C@@H](O[C@H]2C[C@@H](O[C@H]3C[C@@H](O)[C@H](O)C(C)O3)[C@@H](O)C(C)O2)[C@H](O)C(C)O1)[C@@H](O)C(C)=O (some centres unmarked) [(VII)]
IC50 [1, 9]: 10 nM | IC50 [2, 10]: 300 nM | IC50 [3, 11]: 100 nM | IC50 [4, 12]: 50 nM

CO[C@H](C(=O)C(C)=O)[C@@H]1Cc2cc3cc(O[C@H]4C[C@@H](O[C@H]5C[C@@H](O)[C@H](O)C(C)O5)[C@H](O)C(C)O4)c(C)c(O)c3c(O)c2C(=O)[C@H]1O[C@H]1C[C@@H](O[C@H]2C[C@@H](O)[C@@H](O)C(C)O2)[C@H](O)C(C)O1 (some centres unmarked) [(VIII)]
IC50 [1, 9]: 50 nM | IC50 [2, 10]: 300 nM | IC50 [3, 11]: 100 nM | IC50 [4, 12]: 50 nM

CO[C@H](C(=O)[C@@H](O)[C@@H](C)O)[C@@H]1Cc2cc3cc(O[C@H]4C[C@@H](O[C@H]5C[C@@H](O)[C@H](O)C(C)O5)[C@H](O)C(C)O4)c(C)c(O)c3c(O)c2C(=O)[C@H]1O[C@H]1C[C@@H](O[C@H]2C[C@@H](O[C@H]3C[C@](C)(O)[C@H](OC(C)=O)C(C)O3)[C@@H](O)C(C)O2)[C@H](O)C(C)O1 (some centres unmarked) [(XII)]
IC50 [1, 9]: 10 nM | IC50 [2, 10]: 300 nM | IC50 [3, 11]: 50 nM | IC50 [4, 12]: 50 nM

CO[C@@H]([C@@H]1Cc2cc3cc(O[C@H]4C[C@@H](O[C@H]5C[C@@H](O)[C@H](O)C(C)O5)[C@H](O)C(C)O4)c(C)c(O)c3c(O)c2C(=O)[C@H]1O[C@H]1C[C@@H](O[C@H]2C[C@@H](O[C@H]3C[C@](C)(O)[C@H](O)C(C)O3)[C@@H](O)C(C)O2)[C@H](O)C(C)O1)[C@@H](O)C(C)=O (some centres unmarked) [(XIV)]
IC50 [1, 9]: 10 nM | IC50 [2, 10]: 750 nM | IC50 [3, 11]: 50 nM | IC50 [4, 12]: 50 nM

CCCC(=O)O[C@@H]1C[C@H](O[C@@H]2C[C@H](Oc3cc4cc5c(c(O)c4c(O)c3C)C(=O)[C@@H](O[C@H]3C[C@@H](O[C@H]4C[C@@H](O[C@H]6C[C@](C)(O)[C@H](O)C(C)O6)[C@@H](O)C(C)O4)[C@H](O)C(C)O3)[C@H]([C@H](OC)C(=O)[C@@H](O)[C@@H](C)O)C5)OC(C)[C@H]2O)OC(C)[C@H]1O (some centres unmarked) [(XLVI)]
IC50 [1, 9]: 43 nM | IC50 [2, 10]: 43 nM | IC50 [3, 11]: 43 nM | IC50 [4, 12]: 433 nM

CCCC(=O)O[C@H](C)[C@H](O)C(=O)[C@@H](OC)[C@@H]1Cc2cc3cc(O[C@H]4C[C@@H](O[C@H]5C[C@@H](O)[C@H](O)C(C)O5)[C@H](O)C(C)O4)c(C)c(O)c3c(O)c2C(=O)[C@H]1O[C@H]1C[C@@H](O[C@H]2C[C@@H](O[C@H]3C[C@](C)(O)[C@H](O)C(C)O3)[C@@H](O)C(C)O2)[C@H](O)C(C)O1 (some centres unmarked) [(XXXI)]
IC50 [1, 9]: 43 nM | IC50 [2, 10]: 43 nM | IC50 [3, 11]: 43 nM | IC50 [4, 12]: 43 nM

CO[C@H](C(=O)C(C)=O)[C@@H]1Cc2cc3cc(O[C@H]4C[C@@H](O[C@H]5C[C@@H](O)[C@H](O)[C@@H](C)O5)[C@H](O)[C@@H](C)O4)c(C)c(O)c3c(O)c2C(=O)[C@H]1O[C@H]1C[C@@H](O[C@H]2C[C@@H](O[C@H]3C[C@](C)(O)[C@H](O)[C@@H](C)O3)[C@@H](O)[C@@H](C)O2)[C@H](O)[C@@H](C)O1 [MTM-SDK, reference compound]
IC50 [1, 5]: 9.4 nM | IC50 [2, 6]: 47.4 nM | IC50 [3, 7]: 9.4 nM | IC50 [4, 8]: 9.4 nM

CO[C@@H]([C@@H]1Cc2cc3cc(O[C@H]4C[C@@H](O[C@H]5C[C@@H](O)[C@H](O)[C@@H](C)O5)[C@H](O)[C@@H](C)O4)c(C)c(O)c3c(O)c2C(=O)[C@H]1O[C@H]1C[C@@H](O[C@H]2C[C@@H](O[C@H]3C[C@](C)(O)[C@H](O)[C@@H](C)O3)[C@@H](O)[C@@H](C)O2)[C@H](O)[C@@H](C)O1)[C@@H](O)C(C)=O [MTM-SK, reference compound]
IC50 [1, 5]: 9.4 nM | IC50 [2, 6]: 47.3 nM | IC50 [3, 7]: 9.4 nM | IC50 [4, 8]: 9.4 nM
